Laboratory results taken from patent publication US8921409B2, “Combination of 4-{3-[cis-hexahydrocyclopenta[c]pyrrol-2(1H)-yl]propoxy}benzamide and a NMDA receptor antagonist and pharmaceutical compositions containing the same” (Les Laboratoires Servier, priority 2011, dated 2014).
Where a name gives a salt, the structure may show the parent alone.

System: middle-aged (14-15 months old) C57B16 mouse
Test: Contextual serial discrimination test (model of episodic memory)
Assay type: in vivo
Excerpt: The effects of 4-{3-[cis-hexahydrocyclopenta[c]pyrrol-2(1H)-yl]propoxy}benzamide and memantine (both in the form of a hydrochloride), administered on their own or in combination, were studied using a contextual discrimination test in the middle-aged (14-15 months old) C57B16 mouse (n=12 per group) (Célérier et al., Learn Mem., 2004, 11(2), 196-204; Tronche et al., Behav. Brain Res., 2010, 215(2): 255-60). In this model, the middle-aged mice have a specific dysfunction of contextual episodic memory compared to young mice, without a deficiency in spatial memory. This model is relevant for evaluating the effects of products in Alzheimer's disease because patients suffering from that form of dementia also have disturbances of contextual episodic memory, this being the case from a very early stage (Gold and Budson, Expert Rev Neurother., 2008, 8(12): 1879-1891).
The mice, placed in a box with raised edges, learn two types of consecutive spatial discrimination (D1: white floor, then D2: black floor) on a floor with four holes, in which just one of the holes is baited, the arrangement being opposite in D1 and in D2. The colour of the floor (black or white) constitutes the internal context specific to each discrimination. 24 hours after the learning step, the mice are returned to the white contextual floor, and the following are measured: • the percentage of correct responses (i.e. % of lowering the head into the hole that was baited during the learning exercise on the white floor), • the percentage of interfering responses (i.e. % of lowering the head into the hole that was baited during the learning exercise on the black floor, the last context presented to the mice), • and the percentage of errors (i.e. % of lowering the head into the two holes that were not baited during learning, whether on the white floor or on the black floor (see FIG. 1).
The power of contextual memory is defined as being the difference between the percentage of correct responses and the percentage of interfering responses. […]

Row | Compound | power of contextual memory (% correct responses minus % interfering responses) (compound S hydrochloride 0.1 mg/kg of base per os, chronic treatment for 9 days, carrier −34%) | power of contextual memory (% correct responses minus % interfering responses) (compound S on its own, 1 mg/kg of base per os) | power of contextual memory (% correct responses minus % interfering responses) (memantine hydrochloride 1 mg/kg of base per os, chronic treatment for 9 days, carrier −34%)
1 | NC(=O)c1ccc(OCCCN2C[C@H]3CCC[C@H]3C2)cc1 [compound S, 4-{3-[cis-hexahydrocyclopenta[c]pyrrol-2(1H)-yl]propoxy}benzamide] | −15% | +14% | 
2 | CC12CC3CC(C)(C1)CC(N)(C3)C2 [memantine hydrochloride, memantine, reference compound] |  |  | −2%
